Measurements from patent US20250205252A1, “7-KETOLITHOCHOLIC ACID FOR USE IN THE TREATMENT OF GUT DYSBIOSIS AND AS A PREBIOTIC” (NZP UK Limited, priority 2022, published 2025).
Read-outs that look alike come from different tables or passages of the source.

Key:
Eubacterium rectale = assay: 3-stage gut model, bacterial composition by 16s rRNA sequencing, Eubacterium rectale; conditions: after treatment, proximal region of the colon; before 4%
[1] = system: Bifidobacterium spp. (Bif164); assay: 3-stage gut model, flow-FISH enumeration, Bifidobacterium
Atopobium-Coriobacterium = assay: Batch culture fermentation of faecal slurry, flow-FISH enumeration (ATO); format: cell-based
[2] = system: SCFAs acetate, propionate, butyrate and lactate; format: cell-based; conditions: preliminary results from one donor, FIG. 3
Roseburia spp. (Rrec584) = assay: 3-stage gut model, flow-FISH enumeration, Roseburia; conditions: across V1, V2 and V3; not statistically significant
bacterial metabolites = assay: 3-stage gut model, metabolite spectra analysis by 1H NMR; conditions: V3 (distal colon)
[3] = system: Desulfovibrionales and Dessulfuromonadales; assay: Batch culture fermentation of faecal slurry, flow-FISH enumeration (DSV); format: cell-based
Clostridium species = assay: 3-stage gut model, bacterial composition by 16s rRNA sequencing, Clostridium; format: cell-based; conditions: after treatment; from 5.6%
[4] = system: total bacteria (EUB-I-II-III); assay: 3-stage gut model, flow-FISH enumeration, total bacteria; conditions: for total bacteria (EUB-I-II-III) after treatment: proximal region (V1), 400 mg/day, 512 h (SS2)
Total bacteria = assay: Batch culture fermentation of faecal slurry, flow-FISH enumeration (Total); format: cell-based; conditions: 7-KLCA at 5 and 10 h, maltodextrin only at 5 h
[5] = system: Faecalibacterium prausnitzii (Fprau655); assay: 3-stage gut model, flow-FISH enumeration, Faecalibacterium prausnitzii
Eubacterium eligens = assay: 3-stage gut model, bacterial composition by 16s rRNA sequencing, Eubacterium eligens; conditions: after treatment, 2% before
[6] = system: Bacteroides xylanisolvens; assay: 3-stage gut model, bacterial composition by 16s rRNA sequencing, Bacteroides xylanisolvens; conditions: after treatment, transverse region; 2% before
[7] = system: Eubacterium rectale (Erec482); assay: 3-stage gut model, flow-FISH enumeration, Eubacterium rectale; conditions: across V1, V2 and V3; not statistically significant
[8] = system: Streptococcus spp. (Strp); assay: 3-stage gut model, flow-FISH enumeration, Streptococcus; conditions: FIG. 6
Bifidobacterium spp. = assay: 3-stage gut model, bacterial composition by 16s rRNA sequencing, Bifidobacterium; conditions: after treatment, V3 (distal colon); lower than the baseline
[9] = system: Clostridium histolyticum (Chis150); assay: 3-stage gut model, flow-FISH enumeration, Clostridium histolyticum; format: cell-based; conditions: FIG. 6
[10] = system: Faecalibacterium prausnitzii; assay: 3-stage gut model, bacterial composition by 16s rRNA sequencing, F. prausnitzii; conditions: after treatment
[11] = system: Bacteroides-Prevotella (BAC303); assay: 3-stage gut model, flow-FISH enumeration, Bacteroides-Prevotella; conditions: 400 mg/day, 512 h; for Bacteroides-Prevotella (BAC303) population numbers after treatment: transverse region (V2)
Bifidobacterium species = assay: Batch culture fermentation of faecal slurry, flow-FISH enumeration (BIF); format: cell-based
[12] = system: Desulfovibrionales (DSV687); assay: 3-stage gut model, flow-FISH enumeration, Desulfovibrionales; conditions: FIG. 6
[13] = format: in vivo, CD-1 mice
Description: The study design: • CTRL 1 Mice on normal diet for 60 days (5 mice) • CTRL 2 Mice on normal diet with 7KLCA at 10 mg/kg for 60 days (5mice) • CTRL 3 Mice on normal diet for 30 days, then 30 days on a high glucose diet (5 mice) • Treated Mice on normal diet for 30 days, then 30 days on a high glucose diet with 7KLCA throughout the study (5 mice)
Standard diet (10.6% fat J/J, 29.0% protein J/J and 60.4% carbohydrate J/J). High glucose diet (10.5% fat J/J, 16.4% protein J/J and 73.1% carbohydrate J/J). For all experimental group, free accesses to tap water The animals were kept in group of 5 animals/sex/group/cage in Plexiglas cages.
Experiments were carried out in 8-12-week-old male CD-1 mice according to the guidelines for the safe use and care of experimental animals in accordance with the Italian D.L. no. 116 of 27 Jan. 1992 and associated guidelines in the European Communities Council (86/609/ECC and 2010/63/UE) including the 3Rs concept (Kilkenny et al, 2010; McGrath et al, 2015). Animals were housed with ad libitum access to food and water and maintained on a 12-hour light/dark cycle. Experimental study groups were randomized and blinded. The animals in the control groups were handled in an identical manner to the treated group using the respective vehicle and the same volume of administration. Tested item formulation or vehicle was administered by oral gavage. The body weight was recorded once before the assignment to the experimental groups, on the first day of administration, and then weekly during the treatment.
The dose of 7-KLCA used in this study was 10 mg/kg/day. The vehicle used was DMSO in saline solution (NaCl 0.9%), 1/3 w/w. 7-KLCA was solubilised in DMSO (1 part w/w) and then resuspended in saline solution (3 parts w/w). This solution (200 μl/mouse) was prepared freshly every day and was kept under magnetic stirring during the daily administration.
The body weight was recorded once before the assignment to the experimental groups, on the first day of administration, and then weekly.
General clinical observations were performed at least once a day, at the same hour. The health condition of the animals was recorded.
After overnight fasting, blood of the animals was collected in serum separator tubes. FIGS. 10 and 13 show the change in body weight for the mice in the study.

Dialister pneumosintes = assay: 3-stage gut model, bacterial composition by 16s rRNA sequencing, Dialister pneumosintes; conditions: after treatment, before 7%
[14] = system: bacterial metabolites lactate, acetate, butyrate, propionate and valerate; assay: 3-stage gut model, bacterial metabolite quantification by GC-MS; format: cell-based
[15] = HGD+7KLCA vs CTRL 3 (HGD), day 60
[16] = normal diet 60 days, CTRL 2 vs CTRL 1
[17] = V1, V2 and V3, not statistically significant

C[C@H](CCC(=O)O)[C@H]1CC[C@H]2[C@@H]3C(=O)C[C@@H]4C[C@H](O)CC[C@]4(C)[C@H]3CC[C@]12C [7-KLCA, 3α-hydroxy-7-oxo-5β-cholanic acid]
abundance of Eubacterium rectale (Eubacterium rectale): 18%
increase in Bifidobacterium spp. (Bif164) between Baseline and after treatment, statistical significance ([1]; 3-stage gut model): no statistically significant increases
observed change in Bifidobacterium spp. numbers after treatment ([1]; across all three stages (V1, 2 and 3)): observed increase
Bifidobacterium spp. (Bif164) numbers after treatment ([1]; transverse region, Baseline Log 10 7.54±1.06 CFU/mL): 8.16±0.13 Log 10 CFU/mL
increases in pathogenic species Atopobium, Coriobacterium (Atopobium-Coriobacterium): no increases
SCFA production (metabolic profile) [2]: promoting beneficial SCFA production
change in Roseburia spp. between baseline and after treatment (Roseburia spp. (Rrec584)): increase
alanine in 1H NMR spectrum (bacterial metabolites; after treatment): detected
acetate peaks in 1H NMR spectrum (bacterial metabolites; after vs before treatment): higher peaks
bacterial metabolite iso-leucine in 1H NMR spectrum (bacterial metabolites; after vs before treatment): presence after treatment
bacterial metabolite leucine in 1H NMR spectrum (bacterial metabolites; after vs before treatment): presence after treatment
propionate peaks in 1H NMR spectrum (bacterial metabolites; after vs before treatment): higher peaks
peaks of butyrate in 1H NMR spectrum (bacterial metabolites; after vs prior to treatment): greater
increases in pathogenic species Desulfovibrionales and Desulfuromonadales [3]: no increases
Clostridium species, of total bacterial species detected (Clostridium species): 4.5%
numbers of total bacteria after treatment versus Baseline ([4]; all three regions of the model, not significant): greater
total bacteria (EUB-I-II-III) after treatment [4]: 9.35±0.16 Log10 CFU/mL
change in total bacteria, statistical significance (Total bacteria): statistically significant increases
change in numbers of Faecalibacterium prausnitzii between baseline and after treatment ([5]; 7KLCA: V2 and V3): statistically significant increases
numbers of Faecalibacterium prausnitzii after treatment ([5]; V2, baseline Log10 7.47±0.91 CFU/mL): 8.81±0.09 Log10 CFU/mL
numbers of Faecalibacterium prausnitzii after treatment ([5]; V3, baseline Log10 6.95±0.97 CFU/mL): 8.39±0.22 Log10 CFU/mL
abundance of Eubacterium eligens (Eubacterium eligens; V1): 2%
abundance of Eubacterium eligens (Eubacterium eligens; V2): 5%
abundance of Eubacterium eligens (Eubacterium eligens; V3): 2%
abundance of Bacteroides xylanisolvens [6]: 9%
change in Eubacterium rectale between baseline and after treatment [7]: increase
increases in pathogenic Streptococcus [8]: no statistically significant increases
abundance of Bifidobacterium spp. (Bifidobacterium spp.): 5%
increases in pathogenic Clostridium histolyticum [9]: no statistically significant increases
abundance of F. prausnitzii ([10]; V3 (distal colon), from 0.6%): 10%
abundance of Faecalibacterium prausnitzii ([10]; proximal region of the colon (V1), before 4%): 17%
abundance of F. prausnitzii, of total bacterial composition ([10]; transverse region of the colon (V2)): 18%
Bacteroides-Prevotella population numbers after treatment ([11]; distal region (V3)): 7.69±0.15 Log10 CFU/mL
Bacteroides-Prevotella (BAC303) population numbers after treatment [11]: 8.47±0.24 Log10 CFU/mL
Bifidobacterium numbers (Bifidobacterium species; at T5, vessels containing 7-KLCA and maltodextrin): 7.45±0.16 Log10 CFU/mL
Bifidobacterium numbers (Bifidobacterium species; at T10, vessels containing 7-KLCA and maltodextrin): 7.55±0.21 Log10 CFU/mL
change in Bifidobacterium spp. (BIF) numbers, statistical significance (Bifidobacterium species; batch culture, 7-KLCA at 5 and 10 h): statistically significant increases
Bifidobacterium numbers (Bifidobacterium species; starting value (0 h), vessels containing 7-KLCA and maltodextrin): 6.48±0.14 Log10 CFU/mL
increases in pathogenic Desulfovibrionales [12]: no statistically significant increases
toxicity ([13]; 10 mg/kg, 60 days, oral gavage): no toxicity was observed
blood glucose levels ([13]; HGD+7KLCA vs CTRL 3 (HGD), after 60 days): significantly lower
HDL cholesterol levels [13, 15]: slight, though not significant, increase
LDL cholesterol levels [13, 15]: significantly reduced
total cholesterol levels [13, 15]: significantly reduced
weight gain ([13]; after switch to HGD diet (days 30-60), 10 mg/kg/day, CTRL 3 gained significantly more): gained a similar amount of weight to the mice on the normal diet
weight gains ([13]; initial 30-day period on standard diet, treated group vs CTRL 3): no significant difference
insulin levels ([13]; normal diet 30 days followed by HGD diet 30 days): trend of increased insulin levels
weight gains ([13]; normal diet 60 days, 10 mg/kg oral gavage (CTRL 2) vs CTRL 1): no significant difference
blood glucose levels [13, 16]: no significant difference
levels of HDL cholesterol [13, 16]: no significant difference
levels of LDL cholesterol [13, 16]: no significant difference
levels of total cholesterol [13, 16]: no significant difference
Dialister pneumosintes, percentage of total bacteria composition (Dialister pneumosintes; distal colon (V3)): 3%
Dialister pneumosintes, percentage of total bacteria composition (Dialister pneumosintes; transverse colon (V2)): 3%
change in acetate concentration ([14]; GC-MS, after treatment vs SS1): no statistically significant changes
change in butyrate concentration ([14]; GC-MS, after treatment vs SS1): no statistically significant changes
change in valerate concentration ([14]; GC-MS, after treatment vs SS1): no statistically significant changes
change in lactate concentration [14, 17]: increases measured
change in propionate concentration [14, 17]: increases measured

C[C@H](CCC(=O)O)[C@H]1CC[C@H]2[C@@H]3[C@@H](O)C[C@@H]4C[C@H](O)CC[C@]4(C)[C@H]3CC[C@]12C [UDCA, ursodeoxycholic acid, reference compound]
total bacteria (EUB-I-II-III) after treatment [4]: 8.74±0.50 Log10 CFU/mL
Bacteroides-Prevotella (BAC303) population numbers after treatment [11]: 6.94±0.33 Log10 CFU/mL
